Reference: US7803811B2, “1,2,3-substituted indolizine derivatives, inhibitors of FGFs, method for preparing them and pharmaceutical compositions containing them” (Sanofi-Aventis, priority 2002, dated 2010)

melting point: 142 °C
Compound: COc1cc(C(=O)c2c(C)c(OCCO)c3ccccn23)ccc1[N+](=O)[O-] [Example 80, [1-(2-Hydroxyethoxy)-2-methylindolizin-3-yl](3-methoxy-4-nitrophenyl)methanone]
